Measurements taken from a melting point compilation (Tetko et al.).

melting point [°C]	SMILES
43	CC(C)CC(=O)C=Cc1ccccc1
190	O=C1C(=Cc2ccccc2)SC(=S)N1CNc1cccc([N+](=O)[O-])c1
260	O=C(O)c1cccc2cccc(C(=O)O)c12
114	O=C(Cc1ccccc1)c1ccc2c3c(cccc13)CC2
248	CN(C)CCC=C1c2ccccc2COc2ccc(CC(=O)O)cc21
119	Cc1n[nH]c(C)c1Cc1ccccc1
133	O=C(c1ccc([N+](=O)[O-])cc1)c1noc(-c2ccc([N+](=O)[O-])cc2)c1S(=O)(=O)c1ccccc1
152	Nc1c(Br)cc(Br)cc1C(O)c1ccccc1 (configuration not stated)
220	COc1cc2c(cc1O)C(Cc1ccc(O)cc1)NCC2 (configuration not stated)
150 to 153	O=C(O)[C@@H]1CCCC[C@H]1C(=O)c1ccccc1 (relative stereo)
36 to 39	CCCC(=O)c1ccc(Cl)cc1
128	O=C(O)COCCN1C(=O)c2ccccc2C1=O
-30	CC(=O)Oc1ccccc1
235	CC(=O)Nc1ccc2c(NC(C)=O)c(O)ccc2c1
139	Nc1ccc(N=Nc2ccccc2)c(N)n1
140 to 142	O=C1C=C(NCCNc2ccccc2)C(=O)c2ccccc21
190	NC(=O)N1c2ccccc2C=Cc2ccccc21
144	CS(=O)(=O)Nc1ccc([N+](=O)[O-])cc1Oc1ccccc1
258	Cc1ccccc1/C=C(/C#N)c1nc2ccccc2c(=O)[nH]1
137 to 142	C[C@H](OC(=O)Nc1ccccc1)C(=O)O
106 to 108	CC(=O)Nc1ccc2c(c1)CCC2

melting point [°C]	SMILES
145 to 147	O=S(=O)(O)c1cccc2cccc(Cl)c12
270 to 271	COc1ccccc1-n1ncc2c(=O)[nH]cnc21
179	Cn1cncc1CC1COC(=O)C1C(O)c1ccccc1 (configuration not stated)
203 to 207	O=C1c2ccccc2C(=C(c2ccccc2)c2ccccc2)c2ccccc21
145	CC(C1=CCC(C(=O)O)C(C)(C)O1)(c1ccccc1)c1ccccc1 (configuration not stated)
104	CCc1ccccc1NCN1C(=O)c2ccccc2C1=O
188	O=C(Nc1ccccc1)c1cc([N+](=O)[O-])cc(S(=O)(=O)Nc2ccccc2)c1
70	O=CC(Br)=Cc1ccccc1
122 to 124	Cc1oc(-c2ccc(Cl)cc2)cc1C(=O)Cl
157	OC(c1ccccc1)P(c1ccccc1)c1ccccc1 (configuration not stated)
91	COC(=O)C1CC(c2ccccc2)c2ccccc21 (configuration not stated)
114	COc1ccccc1OCCNCC(O)COc1cccc2[nH]c3ccccc3c12 (configuration not stated)
56 to 61	CC[C@H](CO)N1Cc2ccccc2C1
130 to 131	[O-][N+](=Nc1ccccc1)c1ccc(N=Nc2ccccc2)cc1
180 to 182	COC(=O)c1ccc(NS(=O)(=O)c2ccc(C)cc2)c(NS(=O)(=O)c2ccc(C)cc2)c1
60	C#CCOc1ccc(Cc2ccc(O)cc2)cc1
169 to 171	ON(Cc1c(F)cccc1Cl)Cc1c(F)cccc1Cl
208	COc1cc(O)c2c(=O)c(O)c(-c3ccc(OCc4ccccc4)c(O)c3)oc2c1
171	CC1=NN(c2ccccc2)C(=O)/C1=N\Nc1cccc(C(F)(F)F)c1
92	CCOC(=O)c1c(-c2ccccc2)csc1N
152	CN1CCC(=C2c3ccccc3CC(=O)c3sccc32)CC1

Continued, compound first:

SMILES	melting point [°C]
CN1N=C(C(F)(F)F)CC1=O	179
CCCCCCCC=O	12.5
N#CSCC(=O)c1ccc(Cl)cc1	135 to 136
CC(C)C[C@@H](N)C(=O)O	300
CCCCCCCCCCCCCCCC(C)CC (configuration not stated)	1
CN(C)C(=S)N(C)C	79.3
O=Cc1ccc(O)c(O)c1O	163
Fc1cc(Br)ccc1CBr	35
Oc1ccccc1-c1ccccc1O	109
N#Cc1ccnc(Br)c1	72
CCOC(=O)C1=C(N)n2nc(C(F)(F)F)nc2NC1c1ccc(Cl)cc1 (configuration not stated)	198
COc1ccc([N+](=O)[O-])c(SC(C)C(=O)O)n1 (configuration not stated)	196 to 199
CCCCCCN1CC(C(=O)O)CC1=O (configuration not stated)	42.5
CC(=O)OC1CC(=O)OC1=O (configuration not stated)	55
CCSc1nnn[nH]1	88 to 89
Oc1ccc(C2SCCS2)cc1	118
O=C(O)c1ccc(F)c(F)c1F	141
CC1(C)OC2C(=O)OC(CO)C2O1 (configuration not stated)	136 to 140
CC(C)(C)C(=O)CCl	-1
Cc1n[nH]c2c(=O)n(-c3ccccn3)c(C)nc12	222 to 224
Cc1c(N)cccc1C(F)(F)F	39
CC(=O)Nc1cc(NS(=O)(=O)C(F)(F)F)c(C)cc1C	184

SMILES	melting point [°C]
Cc1ccc(I)cc1N	47.5
COc1cccc(C=C[N+](=O)[O-])c1OC	83 to 85
O=C(O)COc1cccc([N+](=O)[O-])c1	156 to 161
O=C(O)Cc1ccc(F)cc1Cl	104
O=S(=O)(CCCl)c1ccc(F)cc1	69
Cc1ccc(C(=O)OC(C(=O)O)C(OC(=O)c2ccc(C)cc2)C(=O)O)cc1 (single isomer, unassigned; (+))	165 to 167
C=C1C2CCC3(O)C4(C)CCCC(C)(C(=O)OC5OC(CO)C(O)C(O)C5O)C4CCC3(C2)C1O (configuration not stated)	218 to 220
FC(F)(F)c1cc(C(F)(F)F)c(C(F)(F)F)cc1C(F)(F)F	73 to 74
COC(=O)c1ccccc1S(=O)(=O)NC(=O)Nc1nc(C)cc(C)n1	204
O=C(O)c1cc(F)c(Cl)c([N+](=O)[O-])c1Cl	193 to 197
CN1CCOc2cc(S(=O)(=O)Cl)ccc21	66 to 68
CC(=O)Cc1ccccc1C(=O)OCC(=O)N(C)CCO	70.5
CC(C)CN(CC(C)C)CC(C)C	-21.8
Clc1ccc(Br)nc1	65 to 69
CCC(C(=O)O)c1ccc(CC(C)C)cc1 (configuration not stated)	52
O=C(O)c1n[nH]c2ccc(Br)cc12	290 to 292
Cn1ccnc1C=O	35 to 39
CCOC(=O)c1nnsc1N	124
O=C(O)C1CCCC1C(=O)O (configuration not stated)	160
COc1ccc2c3c1OC1C(O)CCC4C(C2)N(C)CCC341 (configuration not stated)	200
CC(C)(C)C(O)(CCc1ccc(Cl)cc1)Cn1cncn1 (configuration not stated)	105
c1ccc2c(c1)NC1(CCCC1)N2	190

SMILES	melting point [°C]
O=C1NCCO1	87
Cc1cc(O)c(C(C)(C)C)cc1C(C)CC(c1cc(C(C)(C)C)c(O)cc1C)c1cc(C(C)(C)C)c(O)cc1C (configuration not stated)	186
Nc1ncc(Cl)cn1	235
OCCC1CCNCC1	132
C=C(C)C(=O)OCCC(F)(F)C(F)(F)C(F)(F)C(F)(F)C(F)(F)C(F)(F)C(F)(F)C(F)(F)C(F)(F)C(F)(F)F	45 to 50
O=C1C=CC=C2CC1=CC=CC2=O	147
Cc1cc(CS)c(CS)cc1C	64 to 69
CCCc1cccc(O)c1	26
COc1ccc(OC)c(C(=O)CBr)c1	83 to 88
CC(CO)NC(=O)OC(C)(C)C (configuration not stated)	60
Nc1c(OC2C=CC(N3CCCCCC3=O)=CC2)cc(O)c2c1C(=O)c1ccccc1C2=O (configuration not stated)	164
Cc1cccc(OCC(O)CNC(C)(C)C)c1C (configuration not stated)	57
NNC(=S)NC1CCCCC1	142 to 145
NCCc1c[nH]cn1	86
CCOC(=O)CCCOc1ccc(Cl)cc1C	-1
CC(C)(C)OC(=O)Nc1cccs1	151 to 152
CCc1occc(=O)c1O	162
O=CNNC=O	156
O=C(O)c1c(Cl)ccc(Cl)c1Cl	125
O=Cc1cccc(-c2cncnc2)c1	148 to 149
CC(CNC(=O)c1ccccc1)C(=O)OCC(=O)C12OC(C)(C)OC1CC1C3CCC4=CC(=O)C=CC4(C)C3(F)C(O)CC12C (configuration not stated)	205
CN(C)C(=O)NC1CCCCCCC1	138

SMILES	melting point [°C]
Nc1ccc(-c2ccc(N)c(N)c2)cc1N	176
Cc1oc(S(=O)(=O)N2CCOCC2)cc1C(=O)O	184 to 186
O=C(O)c1csc(-c2cccnc2)n1	283 to 284
Cc1cc2c(c(C)c1C)C(=O)C2	103
CC12CCC(O)CC1CCC1C2CCC2(C)C1CCC2(C)O (configuration not stated)	164
NS(=O)(=O)c1cc2c(cc1Cl)NCNS2(=O)=O	267
CN(C)C1CSSC1	177
N[C@@H](CS)C(=O)O	240
C=C1C(=O)C23C(OC(C)=O)CC4C(C)(C)CCC(OC(C)=O)C4(C)C2C(OC(C)=O)CC1C3OC(C)=O (configuration not stated)	277
Oc1ccnc(Cl)c1	171
C[Si](C)(C)O[Si](C)(C)O[Si](C)(C)O[Si](C)(C)O[Si](C)(C)O[Si](C)(C)C	-59
O=C(OC(=O)C(F)(F)C(F)(F)C(F)(F)F)C(F)(F)C(F)(F)C(F)(F)F	-43
CCCCCCCCCCCCCCCC(OC)OC	10
Cn1nc(CCl)c2ccccc21	62 to 63
Cc1cscc1S(=O)(=O)c1ccc(Cl)cc1	102 to 104
CCC=C1CCC2C3CCC4CC(OC(C)=O)CCC4(C)C3CCC12C (configuration not stated)	114
NC(=O)c1ccc(F)c(F)c1	134
CCC(Br)(CC)C(=O)NC(N)=O	118
CCCCC#CCCCC	-73
